The values below come from patent US20020026053A1, “Novel 3-(substituted) -2- indolinones compounds and use thereof as inhibitors of protein kinase activity” (priority 1997, published 2002).

The target in the test is T1, EGFR (Homo sapiens, UniProt P00533).
T1 construct: endogenous in cells; host or cells: A431 cells (lysate, captured with SUMO1 anti-EGFR antibody)
T1 sequence (P00533 25-1210): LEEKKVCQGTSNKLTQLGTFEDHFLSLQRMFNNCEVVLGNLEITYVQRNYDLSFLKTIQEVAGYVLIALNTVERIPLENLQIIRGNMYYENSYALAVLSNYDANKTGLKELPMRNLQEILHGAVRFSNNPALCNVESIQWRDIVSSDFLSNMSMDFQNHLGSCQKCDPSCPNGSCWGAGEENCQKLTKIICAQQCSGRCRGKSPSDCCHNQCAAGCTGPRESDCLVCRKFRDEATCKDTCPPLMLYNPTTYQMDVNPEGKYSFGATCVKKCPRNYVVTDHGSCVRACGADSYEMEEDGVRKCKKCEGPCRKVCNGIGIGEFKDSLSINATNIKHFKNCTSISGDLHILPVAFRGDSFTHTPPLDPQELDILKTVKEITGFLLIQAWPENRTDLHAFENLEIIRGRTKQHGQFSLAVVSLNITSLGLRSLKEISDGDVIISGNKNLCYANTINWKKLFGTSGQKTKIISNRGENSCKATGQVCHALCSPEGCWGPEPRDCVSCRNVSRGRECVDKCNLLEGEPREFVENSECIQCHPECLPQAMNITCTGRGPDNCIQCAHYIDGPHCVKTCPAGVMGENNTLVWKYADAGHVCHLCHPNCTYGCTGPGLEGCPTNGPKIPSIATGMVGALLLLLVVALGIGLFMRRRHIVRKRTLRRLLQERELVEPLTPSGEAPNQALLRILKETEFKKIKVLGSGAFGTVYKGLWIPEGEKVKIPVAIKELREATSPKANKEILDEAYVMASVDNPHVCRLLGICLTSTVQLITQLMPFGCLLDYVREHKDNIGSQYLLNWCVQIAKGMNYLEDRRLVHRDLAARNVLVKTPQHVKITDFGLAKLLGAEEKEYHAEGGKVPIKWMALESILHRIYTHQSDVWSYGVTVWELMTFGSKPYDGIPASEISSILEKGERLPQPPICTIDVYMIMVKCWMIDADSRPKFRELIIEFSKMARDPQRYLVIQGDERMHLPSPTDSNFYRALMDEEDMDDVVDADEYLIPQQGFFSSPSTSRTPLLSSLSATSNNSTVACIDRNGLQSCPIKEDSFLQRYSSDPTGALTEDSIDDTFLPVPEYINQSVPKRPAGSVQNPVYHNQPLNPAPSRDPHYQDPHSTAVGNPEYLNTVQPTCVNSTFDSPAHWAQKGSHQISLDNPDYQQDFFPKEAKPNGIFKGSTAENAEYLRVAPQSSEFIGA
In words: Biochemical EGFR Assay. To be noted: protocol P.167. On the set-up: concentration or dose not given beside the values. The method in brief: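 Readout is ABTS absorbance at 410 nm after anti-phosphotyrosine and HRP-antibody detection of EGFR autophosphorylation. The kinase was immunocaptured from A431 lysate, exposed 30 min to test compound diluted 1:10 in TBS, then phosphorylated for 5 min with ATP/MnCl2 before an EDTA stop.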
For the compound `CNS(=O)(=O)c1ccc2c(c1)C(=Cc1cnc3ccccc3c1)C(=O)N2` [10740/D02], the “Biochem EGFR % Inhibition (P.167)” value turned out to be 0.0%.
For `Cc1[nH]c2ccccc2c1C=C1C(=O)Nc2ccc(I)cc21` [10740/B08] the value was 34.8%; for `Cc1[nH]c2ccccc2c1C=C1C(=O)Nc2c(Br)cc(Br)c(C)c21` [10740/H08], −24.3%; for `O=C1Nc2ccc(S(=O)(=O)Nc3ccc(C(F)(F)F)cc3)cc2C1=Cc1cc(Br)cs1` [10740/E10], 33.0%.
For `COC1CCCN1C=C1C(=O)Nc2ccc(S(=O)(=O)Nc3ccc(C(F)(F)F)cc3)cc21` (stereo not drawn) [10740/E04] the value was 12.3%; for `O=C1Nc2ccc(S(=O)(=O)Nc3ccc(C(F)(F)F)cc3)cc2C1=Cc1cnc2ccccc2c1` [10740/E02], −7.7%; for `Cc1c(Br)ccc2c1C(=Cc1ccc3ccccc3n1)C(=O)N2` [10740/C06], 18.2%.
Then `Cc1c(Br)cc(Br)c2c1C(=Cc1ccsc1)C(=O)N2` [10740/H05], with −4.4%.
For `COC1CCCN1C=C1C(=O)Nc2ccc(I)cc21` (racemic) [10740/B04], the “Biochem EGFR % Inhibition (P.167)” value came to 36.9%.
For `CNS(=O)(=O)c1ccc2c(c1)C(=Cc1cc(Br)cs1)C(=O)N2` [10740/D10] the value was 9.9%; for `O=C1Nc2ccc(I)cc2C1=Cc1ccc2ccccc2n1` [10740/B06], 44.4%; for `O=C1Nc2ccc(I)cc2C1=Cc1cc(Br)cs1` [10740/B10], 39.9%.
For `O=C1Nc2ccc(I)cc2C1=Cc1cnc2ccccc2c1` [10740/B02] the value was 46.1%; for `O=C1Nc2ccc(CCCl)cc2C1=Cc1ccc2ccccc2n1` [10740/G06], −1.2%.
For `CCCCOc1ccc(C=C2C(=O)Nc3c(Br)cc(Br)c(C)c32)cc1` [10740/H11] the value was 0.9%; for `Cc1c(Br)ccc2c1C(=Cc1ccsc1)C(=O)N2` [10740/C05], 3.5%.
As to `COC1CCCN1C=C1C(=O)Nc2c(Br)cc(Br)cc21` (racemic) [10740/A04], the “Biochem EGFR % Inhibition (P.167)” value came to 5.2%.
For `O=C1Nc2c(Br)cc(Br)cc2C1=Cc1ccnc2ccccc12` [10740/A03] the value was 8.2%; for `Cc1c(Br)cc(Br)c2c1C(=Cc1cn(C)c3ccccc13)C(=O)N2` [10740/H07], −5.3%; for `Cc1c(Br)ccc2c1C(=Cc1cnc3ccccc3c1)C(=O)N2` [10740/C02], 15.6%.
For `O=C1Nc2ccc(CCCl)cc2C1=Cc1ccnc2ccccc12` [10740/G03] the value was 19.5%.
Then `CNS(=O)(=O)c1ccc2c(c1)C(=Cc1ccnc3ccccc13)C(=O)N2` [10740/D03], with −6.9%.
With `Cn1cc(C=C2C(=O)Nc3c(Br)cc(Br)cc32)c2ccccc21` [10740/A07], the “Biochem EGFR % Inhibition (P.167)” value is on record as 18.7%.
Then `O=C1Nc2ccc(S(=O)(=O)Nc3ccc(C(F)(F)F)cc3)cc2C1=Cc1ccnc2ccccc12` [10740/E03], with 24.6%; and `CCCCOc1ccc(C=C2C(=O)Nc3ccc(I)cc32)cc1` [10740/B11], with 48.1%; and `Cc1c(Br)cc(Br)c2c1C(=Cc1ccc3ccccc3n1)C(=O)N2` [10740/H06], with 4.8%.
Then `O=C1Nc2ccc(S(=O)(=O)Nc3ccc(C(F)(F)F)cc3)cc2C1=Cc1ccsc1` [10740/E05], with 29.1%; and `Cc1c(Br)ccc2c1C(=Cc1cn(C)c3ccccc13)C(=O)N2` [10740/C07], with 5.0%; and `Cc1c(Br)cc(Br)c2c1C(=Cc1cnc3ccccc3c1)C(=O)N2` [10740/H02], with −9.1%.
For the compound `CNS(=O)(=O)c1ccc2c(c1)C(=CN1CCCC1OC)C(=O)N2` (stereo not drawn) [10740/D04], the “Biochem EGFR % Inhibition (P.167)” value was −1.2%.
For `Cc1[nH]c2ccccc2c1C=C1C(=O)Nc2ccc(S(=O)(=O)N3CCOCC3)cc21` [10740/F08] the value was 5.0%; for `CCCCOc1ccc(C=C2C(=O)Nc3ccc(S(=O)(=O)Nc4ccc(C(F)(F)F)cc4)cc32)cc1` [10740/E11], 8.8%.
In the case of `COC1CCCN1C=C1C(=O)Nc2ccc(Br)c(C)c21` (stereo not drawn) [10740/C04], the “Biochem EGFR % Inhibition (P.167)” value amounted to 7.8%.
Then `Cc1c(Br)ccc2c1C(=Cc1ccnc3ccccc13)C(=O)N2` [10740/C03], with 7.2%; and `Cc1c(Br)cc(Br)c2c1C(=Cc1ccnc3ccccc13)C(=O)N2` [10740/H03], with 16.0%.
Consider `O=C1Nc2c(Br)cc(Br)cc2C1=Cc1ccsc1` [10740/A05], for which the “Biochem EGFR % Inhibition (P.167)” value is reported as 30.3%.
Then `Cc1[nH]c2ccccc2c1C=C1C(=O)Nc2ccc(S(=O)(=O)Nc3ccc(C(F)(F)F)cc3)cc21` [10740/E08], with 3.1%; and `Cn1cc(C=C2C(=O)Nc3ccc(S(=O)(=O)N4CCOCC4)cc32)c2ccccc21` [10740/F07], with −4.2%.
Then `O=C1Nc2ccc(CCCl)cc2C1=Cc1ccsc1` [10740/G05], with 18.7%; and `O=C1Nc2ccc(CCCl)cc2C1=Cc1cc(Br)cs1` [10740/G10], with 1.9%; and `COC1CCCN1C=C1C(=O)Nc2ccc(CCCl)cc21` (stereo not drawn) [10740/G04], with 7.6%.
For `Cc1c(Br)cc(Br)c2c1C(=Cc1ccc(CO)o1)C(=O)N2` [10739/H11] the value was 49.9%; for `O=C1Nc2ccc(S(=O)(=O)N3CCOCC3)cc2C1=Cc1cc(Br)cs1` [10740/F10], 9.5%; for `COC1CCCN1C=C1C(=O)Nc2ccc(S(=O)(=O)N3CCOCC3)cc21` (stereo not drawn) [10740/F04], 11.1%.
On to `O=C1Nc2ccc(CCCl)cc2C1=Cc1cnc2ccccc2c1` [10740/G02], for which the “Biochem EGFR % Inhibition (P.167)” value is recorded as −9.4%.
Then `Cn1cc(C=C2C(=O)Nc3ccc(CCCl)cc32)c2ccccc21` [10740/G07], with 27.9%; and `Cn1cc(C=C2C(=O)Nc3ccc(S(=O)(=O)Nc4ccc(C(F)(F)F)cc4)cc32)c2ccccc21` [10740/E07], with 2.7%.
Then `Cc1c(Br)cc(Br)c2c1C(=Cc1cc(Br)cs1)C(=O)N2` [10740/H10], with −25.5%.
Consider `CNS(=O)(=O)c1ccc2c(c1)C(=Cc1ccsc1)C(=O)N2` [10740/D05], for which the “Biochem EGFR % Inhibition (P.167)” value came to 7.4%.
Then `O=C1Nc2ccc(I)cc2C1=Cc1ccnc2ccccc12` [10740/B03], with 40.1%; and `CNS(=O)(=O)c1ccc2c(c1)C(=Cc1cn(C)c3ccccc13)C(=O)N2` [10740/D07], with −3.0%; and `Cn1cc(C=C2C(=O)Nc3ccc(I)cc32)c2ccccc21` [10740/B07], with 48.9%.
Regarding `Cc1[nH]c2ccccc2c1C=C1C(=O)Nc2ccc(CCCl)cc21` [10740/G08], the “Biochem EGFR % Inhibition (P.167)” value is listed as −9.1%.
For `O=C1Nc2c(Br)cc(Br)cc2C1=Cc1cc(Br)cs1` [10740/A10] the value was 21.9%.
